# Data: patent publication US20250352520A1, “USE OF DEXPRAMIPEXOLE FOR THE TREATMENT OF EOSINOPHILIC COPD” (Areteia Therapeutics, Inc., priority 2024, published 2025)
# Where two headings read alike, the source gives them in different places.
# Legend:
# [1] = for CT Scan - Mucus Score, Change from Baseline / CT Scan - Mucus Score, Result: Week 16
# Excerpt: Mucus dysfunction, a central pathology in patients with COPD, is characterized by excess mucus production, hypersecretion, and reduced clearance, leading to accumulation in the airways as mucus plugs. Computed tomography (CT) scans of individuals with COPD can be assessed by a physician or clinician trained in lung imaging. Mucus plug scoring is assigned based on the number of lung segments with mucus plugs, ranging from 0 (no mucus plugs seen on CT scan) to 20 (all lung segments with mucus plugs).
# All eligible participants received inspiratory and expiratory CT scans at Baseline and at Week 16 to assess for changes in mucus plugs and airway architecture (e.g., changes in airway wall thickness).
# […] underwent at CT scan with mucus plug scoring.
# [2] = across the dose groups at various time-points
structure (smiles),measurement,setting,value
"CCCN[C@@H]1CCc2nc(N)sc2C1 [Dexpramipexole, (6R)-2-amino-4,5,6,7-tetrahydro-6-(propylamino)benzothiazole]","CT Scan - Mucus Score, Change from Baseline",[1]; Subject ID 10001-001-0001,0.00
same,"CT Scan - Mucus Score, Result",[1]; Subject ID 10001-001-0001,1.00
same,"CT Scan - Mucus Score, Change from Baseline",[1]; Subject ID 10001-001-0002,0.00
same,"CT Scan - Mucus Score, Result",[1]; Subject ID 10001-001-0002,0.00
same,"CT Scan - Mucus Score, Change from Baseline",[1]; Subject ID 10001-008-0002,3.00
same,"CT Scan - Mucus Score, Result",[1]; Subject ID 10001-008-0002,3.00
same,"CT Scan - Mucus Score, Change from Baseline",[1]; Subject ID 10001-010-0005,0.00
same,"CT Scan - Mucus Score, Result",[1]; Subject ID 10001-010-0005,0.00
same,"CT Scan - Mucus Score, Change from Baseline",[1]; Subject ID 10001-022-0001,−4.00
same,"CT Scan - Mucus Score, Result",[1]; Subject ID 10001-022-0001,0.00
same,"CT Scan - Mucus Score, Change from Baseline",[1]; Subject ID 10001-022-0006,3.00
same,"CT Scan - Mucus Score, Result",[1]; Subject ID 10001-022-0006,6.00
same,mucus plug score,"[1]; one patient, week 16, score of 4 at baseline",0
same,placebo-corrected change from baseline in pre-BD FEV1,[2],clinically meaningful
